The text below walks through data of patent publication US4056615A, “Lucknomycin and process for producing same” (U C B Societe Anonyme, priority 1975, dated 1977).

Values after ≈ are worked out from the molar mass of the structure shown. “Also recorded” adds a separate entry of the source. Like-named read-outs stand apart in the source and are kept apart here. A value given as a limit tells only on which side of the number the result lay.

The subject of series [1] is Trichomonas vaginalis. In words: Anti-Trichomonas vaginalis activity, subcutaneous Trichomonas vaginalis abscess in mice. It counts as in vivo. The note with it: subcutaneous injections at the level of the abscess. From the text: This test is made in mice on a subcutaneous Trichomonas vaginalis abscess. Subcutaneous injections at the level of the abscess of a suspension (or solution) of the following products at various concentrations are used to determine the ED50.

Series [2] deals with Trichomoras vaginalis. In words: MIC, complete inhibition of growth, Trichomonas vaginalis. The series is classed as cell-based. The method, then: (§1) Lucknomycin is introduced at different dilutions into a peptonedextrose medium inoculated with the organism which is to be tested. After incubation for from 2 to 5 days at 28° C., the number of microgrammes of antibiotic per milliliter of medium is determined which must be used to obtain complete inhibition of growth (MIC) of the organism in question. In order to better point out the antifungal activity of Lucknomycin, it is compared with that of other known antifungal antibiotics.

In series [3] the test system is Candida albicans 11651. In words: MIC, complete inhibition of growth, Candida albicans 11651. It counts as cell-based. The method, then: as §1
The test system of series [4] is Aspergillus niger. In words: MIC, complete inhibition of growth, Aspergillus niger. It counts as cell-based. The method, then:
as §1

The subject of series [5] is Trichophyton mentagrophytes. In words: MIC, complete inhibition of growth, Trichophyton mentagrophytes. It counts as cell-based. The note with it: for MIC: peptone-dextrose medium, 2 to 5 days at 28° C. As for the experimental part: as §1
For series [6], the system named is Trichophyton acuminatum. In words: MIC, complete inhibition of growth, Trichophyton acuminatum. The series is classed as cell-based. The note with it: for MIC: peptone-dextrose medium, 2 to 5 days at 28° C. As for the experimental part:
as §1

The test system of series [7] is Candida albicans. In words: Anti-Candida albicans activity, experimental Candida albicans vaginitis in female rats. The series is classed as in vivo. Particulars: per tablet: lucknomycin 5 mg., clotrimazole 20 mg., nystatin 4 mg. From the text:
The test is made in female rats on experimental Candida albicans vaginitis.

The subject of series [8] is Staphylococcus aureus. In words: Antibacterial spectrum, Staphylococcus aureus. The note with it: 10 mcg/ml, one day at 37° C. The series is classed as cell-based. As for the experimental part:
as §1
(§2) The experimental conditions are the same as for the determination of the fungal spectrum, except that the incubation time is one day at 37° C.

The test system of series [9] is mice. In words: Toxicity, lethal dose LD50 in mice. The series is classed as in vivo. From the text: Lethal dose LD50 in mice in mg./kg. body weight:
Series [10] is described as follows: Solubility. It counts as physicochemical.
Series [11] concerns Klebsiella pneumoniae. In words: Antibacterial spectrum, Klebsiella pneumoniae. The series is classed as cell-based. Particulars: 10 mcg/ml, one day at 37° C. As for the experimental part:
as §1, §2

Series [12] relates to Proteus mirabilis. In words: Antibacterial spectrum, Proteus mirabilis. It counts as cell-based. The note with it: 10 mcg/ml, one day at 37° C. As for the experimental part: as §1, §2
Series [13] concerns Pseudomonas aeruginosa. In words: Antibacterial spectrum, Pseudomonas aeruginosa. The series is classed as cell-based. Particulars: 10 mcg/ml, one day at 37° C. The method, then: as §1, §2
The subject of series [14] is Escherichia coli. In words: Antibacterial spectrum, Escherichia coli. The series is classed as cell-based. The note with it: 10 mcg/ml, one day at 37° C. The method, then:
as §1, §2

For series [15], the system named is Trichomonas vaginalis. In words: Antiprotozoal activity, killing of a culture in full growth of Trichomonas vaginalis. The series is classed as cell-based. Particulars: 0.5 mcg./ml.; within about 30 minutes. The method, then: A concentration of 0.5 mcg./ml. of the antibiotic kills 50% of individuals of a culture in full growth of Trichomonas vaginalis within a period of about 30 minutes.

Series [16] relates to Lactobacillus acidophilus. In words: Antibacterial spectrum, Lactobacillus acidophilus. It counts as cell-based. The note with it: 10 mcg/ml, one day at 37° C. As for the experimental part:
as §1, §2

The subject of series [17] is Streptococcus faecalis. In words: Antibacterial spectrum, Streptococcus faecalis. The series is classed as cell-based. The note with it: 10 mcg/ml, one day at 37° C. The method, then:
as §1, §2

The subject of series [18] is Candida krusei. In words: MIC, complete inhibition of growth, Candida krusei. The series is classed as cell-based. As for the experimental part: as §1
The subject of series [19] is Candida tropicalis. In words: MIC, complete inhibition of growth, Candida tropicalis. It counts as cell-based. The method, then:
as §1

[20] abbreviates: peptone-dextrose medium, 2 to 5 days at 28° C., read-out: MIC.
The mark [21] stands for this setting: Candida albicans 11651, peptone-dextrose medium, 2 to 5 days at 28° C.
Setting [22] is: peptone-dextrose medium, 2 to 5 days at 28° C.

For the compound Candicidin, in series [1], the “ED50 on Trichomonas vaginalis” value came to 24 µg/mL.

For the compound `Cc1ncc([N+](=O)[O-])n1CCO` [Metronidazole], in series [2] (setting [20]), the MIC was determined as 0.5 µg/mL (≈ 2.92 µM).

On to `C[C@@H]1C/C=C/C=C/C=C/C=C/[C@H](O[C@@H]2O[C@H](C)[C@@H](O)[C@H](N)[C@@H]2O)C[C@@H]2O[C@](O)(C[C@@H](O)C[C@H]3O[C@@H]3/C=C/C(=O)O1)C[C@H](O)[C@H]2C(=O)O` [Pimaricin], for which the MIC in series [3] (Candida albicans 11651, peptone-dextrose medium, 2 to 5 days at 28° C., read-out: MIC) is 5 µg/mL (≈ 7.51 µM); in series [2] (setting [20]), greater than 10 µg/mL; in [4] (setting [20]) it was 2.5 µg/mL (≈ 3.76 µM).

Regarding `C[C@@H]1[C@H](O)[C@@H](C)/C=C/C=C/CC/C=C/C=C/C=C/C=C/C(O[C@H]2O[C@H](C)[C@@H](O)[C@H](N)[C@@H]2O)CC2O[C@](O)(CC(O)C(O)CCC(O)CC(O)CC(O)CC(=O)O[C@H]1C)CC(O)C2C(=O)O` (some centres unmarked) [Nystatin, nystatin], the MIC in [3] (setting [21]) is 2.5 µg/mL (≈ 2.7 µM); in [5], 25 µg/mL (≈ 27 µM); in [2] (setting [22]), greater than 10 µg/mL; in series [6], 25 µg/mL (≈ 27 µM); in series [4] (setting [22]) it was 5 µg/mL (≈ 5.4 µM). Moreover, the results for the “Number of cured rats/infested rats” value in series [7] (after 4 administrations), in series [7] (after 8 administrations) and in series [7] (after 12 administrations) were 5/11, 8/11 and 9/11, respectively.

In the case of `C[C@@H]1[C@H](O)[C@@H](C)/C=C/C=C/C=C/C=C/C=C/C=C/C=C/[C@H](O[C@@H]2O[C@H](C)[C@@H](O)[C@H](N)[C@@H]2O)C[C@@H]2O[C@](O)(C[C@@H](O)C[C@@H](O)[C@H](O)CC[C@@H](O)C[C@@H](O)CC(=O)O[C@H]1C)C[C@H](O)[C@H]2C(=O)O` [Amphotericin B], the MIC was 1.25 µg/mL (≈ 1.35 µM) in series [3] (Candida albicans, 11651); greater than 10 µg/mL in [2]; 0.6 µg/mL (≈ 0.649 µM) in series [4].

Consider Trichomycin, for which, in series [1], the “ED50 on Trichomonas vaginalis” value worked out at 43 µg/mL.

`CNc1ccc(C(=O)CC(O)C2C/C=C/C=C/C=C/C=C/C=C/C=C/C=C/C(OC3OC(C)C(O)C(N)C3O)CC(O)C(C(=O)O)C(O)CC(O)CC(O)CC(O)CC(O)CC(O)CC(O)CC(O)CC(=O)O2)cc1` (centres unmarked) [Lucknomycin]: the inhibiting activity entry in series [8], in [11], in [12], in [13], in series [14] and in [16] was “inactive; also recorded: does not exert an inhibiting activity” each time. In series [17], the inhibiting activity entry was “inactive; also recorded: does not exert an inhibiting activity”. The “activity against growth (in words)” value in series [3] (Candida albicans), in series [18], in series [19] and in series [4] was “effective” throughout. The minimal inhibitory concentration (MIC) in series [3] (setting [21]) was 0.1 to 0.2 µg/mL; in series [5] it was 25 µg/mL (≈ 23.6 µM); in series [2] (setting [22]), less than 0.05 µg/mL; in series [6], 12.5 µg/mL (≈ 11.8 µM); in [18] (setting [22]), 0.2 to 0.4 µg/mL; in series [19] (setting [22]), 0.1 to 0.2 µg/mL. In series [4] (setting [22]), this compound yielded a minimal inhibitory concentration (MIC) of 0.5 µg/mL (≈ 0.471 µM). In addition, the LD50 in series [9] (intraperitoneal) was 5-10 mg./kg. body weight; in [9] (intravenous) it was 10-20 mg./kg. body weight; in series [9] (oral), greater than 800 mg./kg. body weight; in [9] (subcutaneous), greater than 800 mg./kg. body weight. Moreover, the “activity (in words)” value in [5] was “moderately active”; in series [2], “effective”; in series [6], “moderately active”. Moreover, the Solubility result is “less soluble” in [10] (in 60% methanol, concentrated ethanol (ethanol) and isopropanol); “insoluble” in [10] (in benzene, acetone, water, chloroform, absolute ethanol, cyclohexane, ethyl acetate and diethyl ether); “soluble” in series [10] (in pyridine, dimethylformamide and dimethylacetamide). In addition, the “individuals of a culture in full growth killed” value in series [15] is 50%. In series [1], the “ED50 on Trichomonas vaginalis” value is 12 µg/mL (≈ 11.3 µM). Besides, the “Number of cured rats/infested rats” value was 14/16 in series [7] (after 4 administrations), 13/13 in series [7] (after 8 administrations) and 12/12 in [7] (after 12 administrations).

Take `Clc1ccccc1C(c1ccccc1)(c1ccccc1)n1ccnc1` [clotrimazole]: the “Number of cured rats/infested rats” value was 17/18 in series [7] (after 4 administrations), 16/16 in series [7] (after 8 administrations) and 17/17 in [7] (after 12 administrations).

In general, MIC refers to the lowest concentration that inhibits growth of the organism.
